Data on 18 compounds can be found in publication PMC11901765, “Discovery of N-(2-Acetamidobenzo[d]thiazol-6-yl)-2-phenoxyacetamide Derivatives as Novel Potential BCR-ABL1 Inhibitors Through Structure-Based Virtual Screening” (Molecules, 2025).

In assay [1] the test system is Ba/F3 (BCR-ABL1) cells. Description: CCK-8 viability assay, Ba/F3 (BCR-ABL1) cells. Type of assay: cell-based. Conditions: for IC50: Table 3; for IC50 / Ba/F3 (BCR-ABL1) Inhibition (%) / GI50: mean ± SD; for Ba/F3 (BCR-ABL1) Inhibition (%): measured at 10 μM; for GI50: Mus musculus, BaF3, CCK8 kit. The procedure:
(§1) Cell viability was assessed using the Cell Counting Kit-8 (CCK-8) assay. […] After 72 h of incubation, 10 μL of CCK-8 reagent was added to each well, and the plates were further incubated for 2–4 h. Absorbance was measured at 450 nm using a microplate reader. Dose-response curves were generated and analyzed using GraphPad Prism 8 (version 8.4.3.686).
(Tetrazolium assays rely on reduction of a dye to a coloured formazan, in cell work by metabolically active cells.)

Assay [2] concerns parental Ba/F3 cells. The experiment in a line: CCK-8 viability assay, parental Ba/F3 cells. The assay is classed as cell-based. To be noted: mean ± SD; for IC50: Table 3; for GI50: CCK8 kit. As for the experimental part:
as §1

The test system of assay [3] is Ba/F3 (BCR-ABL^T315I) cells. The experiment in a line: CCK-8 viability assay, Ba/F3 (BCR-ABL^T315I) cells. Type of assay: cell-based. Conditions: Table 3; mean ± SD. The procedure: as §1
For assay [4], the system named is MV411. Description: CCK-8 viability assay, MV411 cells. The assay is classed as cell-based. As for the experimental part:
as §1

Assay [5] deals with HL60. The experiment in a line: CCK-8 viability assay, HL60 cells. Type of assay: cell-based. The procedure: as §1
For assay [6], the system named is K562 cells. The experiment in a line: CCK-8 viability assay, K562 cells. Type of assay: cell-based. To be noted: 72 h; read-out: GI50 (IC50) K562 cells. The procedure: Cell viability was assessed using the Cell Counting Kit-8 (CCK-8) assay. Cells were seeded in 96-well plates at a density of 10,000 cells per well in RPMI 1640 medium. Test compounds were prepared by serially diluting stock solutions 3-fold in DMSO to generate an eight-point concentration gradient (100 μM to 0.045 μM), followed by addition to the cultured cells. After 72 h of incubation, 10 μL of CCK-8 reagent was added to each well, and the plates were further incubated for 2–4 h. Absorbance was measured at 450 nm using a microplate reader. Dose-response curves were generated and analyzed using GraphPad Prism 8 (version 8.4.3.686).

Assay [7] relates to K562 cells. Description: Synergy study with asciminib (CCK-8, SynergyFinder 3.0, ZIP model). Type of assay: cell-based. As for the experimental part: The drug combination effects were quantified as percentage inhibition of cell viability. The experimental data were analyzed using SynergyFinder 3.0, with a four-parameter logistic regression (LL4) model selected for curve fitting and data analysis. The Synergy Score based on the ZIP (Zero Interaction Potency) model is used to evaluate the synergistic effects of drug combinations.

For assay [8], the system named is BCR-ABL-dependent signaling (p-ABL1, p-STAT5, p-CRKL) in K562 cells. The experiment in a line: Western blot of BCR-ABL-dependent signaling. The assay is classed as cell-based. To be noted: 3.3 and 10 μM, 1 h. The procedure: Western blot analysis was conducted following established protocols. K562 cells were treated with varying concentrations of the test compound for 60 min, followed by protein extraction using RIPA buffer. Protein quantification was performed using bicinchoninic acid assay, and 30–60 μg of protein samples were resolved by 10% sodium dodecyl sulfate-polyacrylamide gel electrophoresis before being transferred onto nitrocellulose membranes. Membranes were probed with primary antibodies overnight at 4 °C. Following incubation with horseradish peroxidase (HRP)-conjugated secondary antibodies (Thermo Scientific, Waltham, MA, USA), protein bands were detected using a chemiluminescent HRP substrate (Millipore Corporation, #WBKLS0500, Billerica, MA, USA) and imaged with a Syngene GeneGnome-XRQ-NPC imager (Synoptics, Britain). Quantitative analysis was performed by measuring band intensity using ImageJ (version 1.43) software. The following primary antibodies were used: c-Abl (ABclonal, #A0282, Woburn, MA, USA), phosphor-c-Abl (ABclonal, #AP0001), STAT5 (ABclonal, #A5029), phosphor-STAT5 (ABclonal, #AP0887), CRKL (ABclonal, #A11735), and phospho-CRKL (ABclonal, #AP0824).
On the technique in general: A western blot detects proteins with antibodies after separation by electrophoresis.

Assay [9] deals with K562 cells. The experiment in a line: Apoptosis assay (Annexin V/PI flow cytometry). To be noted: 10m 10 μM, asciminib 5 μM, 48 or 72 h. In general terms: In flow cytometry, cells or beads pass a laser one at a time.
Method: Cell apoptosis was evaluated through Annexin V and propidium iodide (PI) dual staining using an Annexin V-FITC Apoptosis Detection Kit (Vazyme, #A211-02, Nanjing, China) following the manufacturer’s protocol.
Where [10] appears, read: Table 3, mean ± SD, read-out: IC50 MV411.
The mark [11] stands for this setting: Table 3, mean ± SD, read-out: IC50 HL60.

Where two headings read alike, the source gives them in different places.

As to “N-(2-Acetamidobenzo[d]thiazol-6-yl)-2-(3,4-dichlorophenoxy)acetamide [Compound 10m]”, the IC50 (in general, the concentration that gives 50% inhibition) in [1] is 0.63 ± 0.1 µM; in [2], greater than 100 µM; in assay [3] it was 25.2 ± 1.1 µM; in assay [4] (setting [10]) it was greater than 100 µM; in assay [5] (setting [11]), 54.2 ± 5.5 µM; in [6] it was 0.98 µM. In assay [1], the “Ba/F3 (BCR-ABL1) Inhibition (%)” value is 93 ± 5%. The “effect in combination with asciminib (in words)” value in [7] is reported as “powerful synergistic activity”. The “inhibition of BCR-ABL-dependent signaling pathway (in words)” value in assay [8] is on record as “potently inhibited”. Also, in assay [9], the “apoptosis induction (in words)” value is recorded as “significantly induced apoptosis”.

Turning to “N-(2-Acetamidobenzo[d]thiazol-6-yl)-2-(3-chlorophenoxy)acetamide [Compound 10k]”, the “Ba/F3 (BCR-ABL1) Inhibition (%)” value in assay [1] was determined as 60 ± 6%.

With “N-(2-Acetamidobenzo[d]thiazol-6-yl)-2-(4-fluorophenoxy)acetamide [Compound 10i]”, in [1], the “Ba/F3 (BCR-ABL1) Inhibition (%)” value was determined as 58 ± 2%.

For the compound `CS(=O)(=O)Nc1nc2ccc(NC(=O)COc3ccccc3)cc2s1` [Compound A14], the GI50 (usually the concentration that inhibits growth by half) in assay [1] worked out at 1.2 ± 0.2 µM; in [2] (Mus musculus, BaF3) it was 37.6 ± 5.7 µM.

With “N-(2-Acetamidobenzo[d]thiazol-6-yl)-2-(2-fluorophenoxy)acetamide [Compound 10g]”, the “Ba/F3 (BCR-ABL1) Inhibition (%)” value in [1] is recorded as 65 ± 3%.

Consider “N-(2-Acetamidobenzo[d]thiazol-6-yl)-2-phenoxyacetamide [Compound 10a]”, for which the “Ba/F3 (BCR-ABL1) Inhibition (%)” value in assay [1] was 52 ± 5%.

As to `Cc1ccc(NC(=O)c2ccc(CN3CCN(C)CC3)cc2)cc1Nc1nccc(-c2cccnc2)n1` [Imatinib, imatinib, reference compound], the “effect in combination with asciminib (in words)” value in assay [7] is recorded as “antagonistic effect”.

Turning to `O=C(Nc1ccc(OC(F)(F)Cl)cc1)c1cnc(N2CC[C@@H](O)C2)c(-c2cc[nH]n2)c1` [Asciminib, reference compound], the GI50 in assay [2] (Mus musculus, BaF3) is greater than 100 µM. Besides, the half-inhibitory concentration (IC50) is greater than 100 µM in assay [2] (Mus musculus, BaF3); greater than 100 µM in [4] (Homo sapiens, MV4-11, read-out: IC50 MV411); greater than 100 µM in assay [5] (Homo sapiens, HL-60, read-out: IC50 HL60). For the same compound, the “apoptosis induction (in words)” value in assay [9] is “significantly induced apoptosis”.

As to “N-(2-Acetamidobenzo[d]thiazol-6-yl)-2-(naphthalen-2-yloxy)acetamide [Compound 10f]”, the IC50 in [1] was 2.2 ± 0.5 µM; in assay [2], greater than 100 µM; in [3], greater than 100 µM; in [4] (setting [10]), greater than 100 µM; in assay [5] (setting [11]), greater than 100 µM; in assay [6] it was 2.7 µM. For the same compound, in assay [1], the “Ba/F3 (BCR-ABL1) Inhibition (%)” value is on record as 88 ± 2%.

Take “N-(2-Acetamidobenzo[d]thiazol-6-yl)-2-(4-chlorophenoxy)acetamide [Compound 10l]”: in assay [1], the “Ba/F3 (BCR-ABL1) Inhibition (%)” value was 71 ± 4%.

Take `O=C(COc1ccccc1)Nc1ccc2nc(NC(=O)c3ccccc3)sc2c1` [Compound A13]: the GI50 in [1] is 19.5 ± 4.7 µM; in assay [2] (Mus musculus, BaF3), greater than 100 µM.

For `CCC(=O)Nc1nc2ccc(NC(=O)COc3ccccc3)cc2s1` [Compound A12], the GI50 in assay [1] was 10.7 ± 2.6 µM; in assay [2] (Mus musculus, BaF3) it was greater than 100 µM.

For “N-(2-Acetamidobenzo[d]thiazol-6-yl)-2-(m-tolyloxy)acetamide [Compound 10t]”, the “Ba/F3 (BCR-ABL1) Inhibition (%)” value in assay [1] was found to be 28 ± 5%.

Regarding `CCC(=O)Nc1nc2ccc(NC(=O)COc3ccc(Cl)cc3)cc2s1` [Compound A8], the “inhibition of Ba/F3 (BCR-ABL1) cells (in words)” value in assay [1] (10 μM) is reported as “showed inhibition potency”. The GI50 in [1] is 6.4 ± 1.6 µM; in [2] (Mus musculus, BaF3) it was greater than 100 µM.

As to “N-(2-Acetamidobenzo[d]thiazol-6-yl)-2-(2-chlorophenoxy)acetamide [Compound 10j]”, in assay [1], the “Ba/F3 (BCR-ABL1) Inhibition (%)” value is 68 ± 2%.

For “N-(2-Acetamidobenzo[d]thiazol-6-yl)-2-(o-tolyloxy)acetamide [Compound 10s]”, the “Ba/F3 (BCR-ABL1) Inhibition (%)” value in assay [1] is reported as 22 ± 2%.

With “N-(2-Acetamidobenzo[d]thiazol-6-yl)-2-(3-fluorophenoxy)acetamide [Compound 10h]”, the “Ba/F3 (BCR-ABL1) Inhibition (%)” value in assay [1] came out at 61 ± 5%.

On to `Cc1ccc(S(=O)(=O)Nc2nc3ccc(NC(=O)COc4ccccc4)cc3s2)cc1` [Compound A15], for which the GI50 in assay [1] is 3.9 ± 0.5 µM; in assay [2] (Mus musculus, BaF3), 42.9 ± 10.4 µM.
